From patent US20220332802A1, “METHODS AND COMPOSITIONS FOR TREATMENT OF NEURODEGENERATION” (Children's Hospital Medical Center, priority 2019, published 2022)

Key:
C5aR1 = target: T1, C5aR1 (Homo sapiens, UniProt P21730); conditions: cited from earlier work
T1 sequence (P21730 1-350): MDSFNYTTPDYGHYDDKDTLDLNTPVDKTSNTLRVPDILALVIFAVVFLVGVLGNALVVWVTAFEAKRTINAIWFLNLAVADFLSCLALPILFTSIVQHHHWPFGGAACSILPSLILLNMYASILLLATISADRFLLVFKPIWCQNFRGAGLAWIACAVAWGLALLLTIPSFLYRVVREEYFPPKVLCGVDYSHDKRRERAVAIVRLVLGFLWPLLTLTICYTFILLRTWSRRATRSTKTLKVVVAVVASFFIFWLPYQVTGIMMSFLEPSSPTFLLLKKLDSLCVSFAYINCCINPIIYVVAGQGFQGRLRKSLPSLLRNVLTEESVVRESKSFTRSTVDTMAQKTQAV

[1] = target: T2, glucocerebrosidase (GCase) (Mus musculus, UniProt P17439); assay: Targeting of GCase with CBE in WT and C5aR1-/- mice, 60-day observation; assay type: in vivo; conditions: CBE-injected WT mice
T2 construct: from tissue; brain examined
T2 sequence (P17439 20-515): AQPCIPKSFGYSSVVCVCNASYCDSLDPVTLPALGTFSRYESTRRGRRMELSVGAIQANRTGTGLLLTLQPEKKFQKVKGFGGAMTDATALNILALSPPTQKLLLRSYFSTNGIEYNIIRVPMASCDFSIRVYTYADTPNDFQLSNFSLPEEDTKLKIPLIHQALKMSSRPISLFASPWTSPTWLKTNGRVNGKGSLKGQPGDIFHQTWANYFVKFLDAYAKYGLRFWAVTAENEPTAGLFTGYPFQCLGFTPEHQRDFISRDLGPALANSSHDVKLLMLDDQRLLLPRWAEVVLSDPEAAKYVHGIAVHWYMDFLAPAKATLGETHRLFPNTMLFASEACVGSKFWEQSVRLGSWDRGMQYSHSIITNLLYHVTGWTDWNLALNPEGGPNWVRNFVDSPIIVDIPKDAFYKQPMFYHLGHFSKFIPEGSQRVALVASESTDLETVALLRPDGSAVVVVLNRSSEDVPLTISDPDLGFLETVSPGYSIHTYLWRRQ
Text: 9V/null mice suffered from massive accumulation of GC in the brain and loss of neurons. Applicant targeted glucocerebrosidase (GCase) with conduritol B epoxide (CBE) in WT and C5aR1^−/− mice. Strikingly, CBE-injected WT mice died within 30 days.

GCase [2] = target: T3, GCase (Mus musculus, UniProt P17439); parameters: from tissue; brain examined; conditions: i.p. 50 mg/kg/day for 4 weeks; cited from earlier work
T3 sequence (P17439 20-515): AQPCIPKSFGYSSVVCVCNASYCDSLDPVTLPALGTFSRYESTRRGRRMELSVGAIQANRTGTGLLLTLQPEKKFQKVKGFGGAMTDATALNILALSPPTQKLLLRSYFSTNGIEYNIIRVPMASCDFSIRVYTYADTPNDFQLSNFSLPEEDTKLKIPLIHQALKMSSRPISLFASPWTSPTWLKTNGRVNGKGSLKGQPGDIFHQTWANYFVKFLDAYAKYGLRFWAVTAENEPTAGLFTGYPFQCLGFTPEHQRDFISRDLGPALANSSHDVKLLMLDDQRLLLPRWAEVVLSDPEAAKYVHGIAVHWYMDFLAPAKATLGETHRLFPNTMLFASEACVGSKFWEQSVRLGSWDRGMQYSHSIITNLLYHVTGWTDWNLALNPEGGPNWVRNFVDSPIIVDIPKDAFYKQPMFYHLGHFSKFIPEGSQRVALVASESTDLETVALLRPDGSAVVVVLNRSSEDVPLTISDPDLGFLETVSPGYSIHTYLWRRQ

GCase [3] = target: T3, GCase
[4] = system: experimental Gaucher disease; conditions: cited from earlier work

## Cyclo[N2-(1-Oxo-3-phenylpropyl)-Orn-Pro-D-Cha-Trp-Arg] [PMX 205]
C5aR1
  concentration at which the peptide specifically targets C5aR1: nanomolar concentrations
  manner of action at C5aR1: pseudo-irreversible and insurmountable

## O[C@H]1[C@H](O)[C@@H](O)[C@@H]2O[C@@H]2[C@@H]1O (racemic) [CBE, conduritol B epoxide]
[1]
  time to death: ≤ 30 days
GCase [2]
  reduction of GCase activity: 25-50%
GCase [3]; CBE-GCase targeted WT or C5aR1-/- mice, FIG. 8
  motor, memory and reactivity behaviour: no motor or memory defects but are hyper-reactive
GCase [3]; brain of CBE-GCase targeted PD mouse model, FIG. 1
  brain glucosylceramide: increased glucosylceramide
GCase [3]; brains of CBE-GCase targeted PD mouse model, FIG. 2
  brain C5a and C5aR1: increased C5a and C5aR1
GCase [3]; brains of CBE-GCase targeted PD mouse model, FIG. 3
  brain pro-inflammatory cytokines: increased pro-inflammatory cytokines

B1: C5a-(1-66, Cys27Ala)-A8B-Del.71-73) (protein)
chain: TLQKKIEEIAAKYKHSVVKKCCYDGAAVNNDETCEQRAARISLGPRCIKAFTECCVVASQLRANISFKRS
modifications: (C5a-(1-66,Cys27Ala)-A8B-Del 71-73)
notes: mutein of human C5a that targets C5aR1 and C5aR2 simultaneously
[4]
  survival and disease signs: increase survival and reverse disease signs
